Assay results published in patent publication US20240228469A1, “PCSK9 INHIBITORS AND METHODS OF USE THEREOF” (AstraZeneca AB, priority 2022, published 2024).
pKd: −log10 of the molar value.

Target: PCSK9 (Homo sapiens, UniProt Q8NBP7)
Assay: Assay 2 Biophysical human PCSK9 assay (SPR, Biacore)
Format: binding
Parameters: biotinylated human PCSK9 (31-692)-Avi-His6; His6 (C)
Conditions: single-cycle kinetics, 30° C., geometric mean, read-out: Assay 2 (PCSK9 BIAcore DBA Cr) GMean Kd
Method: The SPR binding experiments were performed on a Biacore S200 optical biosensor unit at 30° C. A Series S Sensor Chip SA that is designed to bind biotinylated molecules for interaction analysis in Biacore systems was equilibrated at room temperature prior to use. The running buffer for protein tethering and subsequent ligand binding experiments was 10 mM HEPES pH 7.4, 150 mM NaCl, 0.05% (v/v) Tween 20 pH 7.4.
For the surface tethering of PCSK9, biotinylated human PCSK9 (31-692)-Avi-His6 at a concentration of 0.5 mg/mL was used. Prior to the surface tethering, the surface was exposed to a solution of 50 mM NaOH, 500 mM NaCl via 3 consecutive injections of this solution with a contact time of 60 s and a flowrate of 10 μL min^−1 to remove non-conjugated streptavidin. The PCSK9 protein was diluted to a concentration of 20 μg/mL using running buffer and injected with a contact time of 180-300 s and a flowrate of 10 μL min^−1 over a single flow channel (typically flow channel 2 or flow channel 4) with the aim to achieve protein capture levels of >5000 response units (RU). Remaining biotin binding sites were blocked via 2 consecutive injections of a 10 μM D-biotin solution in running buffer with a contact time of 60 s and a flowrate of 10 μL min^−1 over all flow-channels. Flow-channels 1 and 3 typically served as a reference surface throughout the subsequent binding experiments.
The binding experiments were all performed at a flow rate of 30 PL min^−1 and by employing the method of single-cycle kinetics. This approach involves the sequential injection of a compound concentration series without regeneration steps. A contact time between 90-150 s was selected, which was followed by a 40 min dissociation phase to allow for a proper estimation of the dissociation rate constant. Test compounds were delivered in DMSO at a concentration of 10 mM and a digital dispenser HP D300 was used to set up the compound concentration series using 6 concentrations. The tested concentrations have been 30, 100, 300, 1000, 3000 and 10000 nM. Prior to injecting any compound, the surfaces were equilibrated by injecting running buffer over them in three separate pulses. The data collection rate was set to 10 Hz.
The raw sensorgrams of the compound injections were first subjected to reference subtraction (subtracting the signal from flow channel 1 and/or 3 from the signal from channels 2 and/or 4 respectively) and then blank subtraction (subtracting the signal from injecting DMSO controls from the reference subtracted data). The resulting double-referenced sensorgrams were then fitted using a 1:1 binding interaction model using the manufactures software package to extract kinetic- and affinity data. Active compounds have been defined by creating a detectable binding signal at the highest compound concentration ([…]) of 3 RUs. Kinetic- and affinity data on active compounds are only provided for those compounds where the binding signal at the highest compound concentration ([…]) is 50% of the theoretical maximum binding signal for a 1:1 binding interaction (Rmax, typically between 15-20 RUs) in order to enable a proper fitting of the data.

Sequence of PCSK9 (Q8NBP7 31-692): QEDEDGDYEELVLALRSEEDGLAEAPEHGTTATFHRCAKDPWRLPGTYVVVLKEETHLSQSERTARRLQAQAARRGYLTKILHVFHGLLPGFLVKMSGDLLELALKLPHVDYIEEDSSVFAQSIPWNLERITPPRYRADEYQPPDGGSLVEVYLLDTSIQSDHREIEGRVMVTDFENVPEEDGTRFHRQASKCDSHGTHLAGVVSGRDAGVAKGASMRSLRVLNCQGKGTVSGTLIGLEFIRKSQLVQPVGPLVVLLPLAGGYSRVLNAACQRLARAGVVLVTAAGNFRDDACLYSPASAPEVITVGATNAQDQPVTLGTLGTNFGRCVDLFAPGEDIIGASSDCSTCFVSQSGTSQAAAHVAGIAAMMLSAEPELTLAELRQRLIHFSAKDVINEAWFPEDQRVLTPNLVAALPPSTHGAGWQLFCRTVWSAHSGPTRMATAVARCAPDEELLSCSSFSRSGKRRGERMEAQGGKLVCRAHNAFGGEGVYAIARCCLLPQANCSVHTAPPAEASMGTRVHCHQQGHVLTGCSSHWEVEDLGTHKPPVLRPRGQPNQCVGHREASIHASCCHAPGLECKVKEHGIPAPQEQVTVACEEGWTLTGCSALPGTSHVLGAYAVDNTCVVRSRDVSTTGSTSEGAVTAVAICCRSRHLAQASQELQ

SMILES	pKd
O=c1c(OC(F)(F)F)cccn1-c1ccc(N[C@H]2CC[C@H](Nc3ncc(C4CC4)nn3)C2)nc1 [Example 52, 6′-(((1S,3S)-3-((6-Cyclopropyl-1,2,4-triazin-3-yl)amino)cyclopentyl)amino)-3-(trifluoromethoxy)-2H-[1,3′-bipyridin]-2-one]	9.15
O=c1ccccn1-c1ccc(N[C@H]2CC[C@H](Nc3ncc(C4CC4)nn3)C2)nc1 [Example 50, 6′-(((1S,3S)-3-((6-Cyclopropyl-1,2,4-triazin-3-yl)amino)cyclopentyl)amino)-2H-[1,3′-bipyridin]-2-one]	8.01
Cc1cnc(N[C@H]2CC[C@H](Nc3ccc(-n4c(=O)n(C)c5ccc(C#N)cc54)cn3)C2)nn1 [Example 210, 1-Methyl-3-(6-(((1S,3S)-3-((6-methyl-1,2,4-triazin-3-yl)amino)cyclopentyl)amino)pyridin-3-yl)-2-oxo-2,3-dihydro-1H-benzo[d]imidazole-5-carbonitrile]	9.22
C#CCNC(=O)c1cnc(N[C@H]2CC[C@H](Nc3ccc(-n4ccccc4=O)cn3)C2)nn1 [Example 69, 3-(((1S,3S)-3-((2-Oxo-2H-[1,3′-bipyridin]-6′-yl)amino)cyclopentyl)amino)-N-(prop-2-yn-1-yl)-1,2,4-triazine-6-carboxamide]	7.92
Cc1cnc(N[C@H]2CC[C@H](Nc3ccc(-n4cc(C#N)ccc4=O)cn3)C2)nn1 [Example 128, 6′-(((1S,3S)-3-((6-Methyl-1,2,4-triazin-3-yl)amino)cyclopentyl)amino)-2-oxo-2H-[1,3′-bipyridine]-5-carbonitrile]	7.52
Cc1cnc(N[C@H]2CC[C@H](Nc3ccc(-n4cccc(Cl)c4=O)cn3)C2)nn1 [Example 129, 3-Chloro-6′-(((1S,3S)-3-((6-methyl-1,2,4-triazin-3-yl)amino)cyclopentyl)amino)-2H-[1,3′-bipyridin]-2-one]	8.89
Cc1cnc(N[C@H]2CC[C@H](Nc3ccc(-n4c(=O)n(C)c5cccnc54)cn3)C2)nn1 [Example 212, 1-Methyl-3-(6-(((1S,3S)-3-((6-methyl-1,2,4-triazin-3-yl)amino)cyclopentyl)amino)pyridin-3-yl)-1,3-dihydro-2H-imidazo[4,5-b]pyridin-2-one]	8.77
COc1ccc(=O)n(-c2ccc(N[C@H]3CC[C@H](Nc4ncc(C)nn4)C3)nc2)c1 [Example 133, 5-Methoxy-6′-(((1S,3S)-3-((6-methyl-1,2,4-triazin-3-yl)amino)cyclopentyl)amino)-2H-[1,3′-bipyridin]-2-one]	7.77
Cc1cccn(-c2ccc(N[C@H]3CC[C@H](Nc4ncc(C5CC5)nn4)C3)nc2)c1=O [Example 66, 6′-(((1S,3S)-3-((6-Cyclopropyl-1,2,4-triazin-3-yl)amino)cyclopentyl)amino)-3-methyl-2H-[1,3′-bipyridin]-2-one]	8.82
